Earlier results, collected in US20220288358A1, “Drug-Coated Balloon Controllable In Drug Metabolism And Preparation Method Therefor” (Shanghai HeartCare Medical Technology Corporation Limited, priority 2019, published 2022).
Entries after “also recorded” stand apart in the source; their conditions may differ.

Target: FKBP12 protein (Homo sapiens, UniProt P62942)
Settings: rank order from strong to weak; stated without data

FKBP12 protein, sequence (P62942 whole entry, species assumed): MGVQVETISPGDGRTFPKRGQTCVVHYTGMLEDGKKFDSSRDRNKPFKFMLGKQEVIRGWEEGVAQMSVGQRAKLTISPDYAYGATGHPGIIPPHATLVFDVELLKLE

SMILES | ability to bind FKBP12 protein
CCC(C)(C)C(=O)C(=O)N1CCC[C@H]1C(=O)OCCCc1cccnc1 [drug a, 3-pyridin-3-ylpropyl-(2 S)-1-(3,3-dimethyl-2-oxo-pentanoyl)-pyrrolidine-2-carboxylate] | from strong to weak is drug c, drug b, and drug a
CCOC(=O)[C@H](CC(C)C)NC(=O)[C@@H]1CSCCN1S(=O)(=O)c1ccc(C)cc1 [drug b, (3R)-4-(p-Toluenesulfonyl)-1,4-thiazane-3-carboxylicacid-L-leucine ethyl ester] | from strong to weak is drug c, drug b, and drug a
Cc1ccc(S(=O)(=O)N2CCSC[C@H]2C(=O)N[C@@H](Cc2ccccc2)C(=O)OCc2ccccc2)cc1 [drug c, (3R)-4-(p-Toluenesulfonyl)-1,4-thiazane-3-carboxylic acid-L-phenylalanine benzyl ester] | stronger than that of drug a; also recorded: from strong to weak is drug c, drug b, and drug a
